Measurements as given in US20120270237A9, “METHODS FOR THE IDENTIFICATION OF KINASE INTERACTING MOLECULES AND FOR THE PURIFICATION OF KINASE PROTEINS” (Cellzone AG, priority 2009, published 2012).

How the values were obtained:
TGFbR1 = TGFbR1 (Homo sapiens, UniProt P36897); assay: Kinobeads competition binding, HeLa Placenta lysate mix; parameters: kinases from mixed HeLa placenta lysates; endogenous in cells; host or cells: mixed lysate of HeLa cells and placenta tissue; details: 10 μM free compound
Method: (§1) To one aliquot of cell lysate 10 μM of the free compound (FIG. 3, CZC31326) was added and allowed to bind to proteins in the lysate. Then the affinity matrix with the immobilized compound was added to capture proteins that were not interacting with the previously added free compound. Beads were separated from the lysate and bead bound proteins were eluted in SDS sample buffer and subsequently separated by SDS-Polyacrylamide gel electrophoresis (FIG. 10). Suitable gel bands were cut out and subjected to in-gel proteolytic digestion with trypsin. The second lysate aliquot was processed identically, however no free compound was added (DMSO solvent control). Peptides originating from samples 1 and 2 were labeled with iTRAQ reagents (iTRAQ 114 and iTRAQ 117) and the combined samples were analyzed with a nano-flow liquid chromatography system coupled online to a tandem mass spectrometer (LC-MS/MS) experiment followed by iTRAQ reporter ion quantification in the MS/MS spectra as described in Example 2.

TEC = molecular target: T1, TEC (Homo sapiens, UniProt P42680); assay: as above; parameters: kinases from mixed HeLa placenta lysates; endogenous in cells; host or cells: mixed lysate of HeLa cells and placenta tissue; details: 10 μM free compound
T1 sequence (P42680 1-631): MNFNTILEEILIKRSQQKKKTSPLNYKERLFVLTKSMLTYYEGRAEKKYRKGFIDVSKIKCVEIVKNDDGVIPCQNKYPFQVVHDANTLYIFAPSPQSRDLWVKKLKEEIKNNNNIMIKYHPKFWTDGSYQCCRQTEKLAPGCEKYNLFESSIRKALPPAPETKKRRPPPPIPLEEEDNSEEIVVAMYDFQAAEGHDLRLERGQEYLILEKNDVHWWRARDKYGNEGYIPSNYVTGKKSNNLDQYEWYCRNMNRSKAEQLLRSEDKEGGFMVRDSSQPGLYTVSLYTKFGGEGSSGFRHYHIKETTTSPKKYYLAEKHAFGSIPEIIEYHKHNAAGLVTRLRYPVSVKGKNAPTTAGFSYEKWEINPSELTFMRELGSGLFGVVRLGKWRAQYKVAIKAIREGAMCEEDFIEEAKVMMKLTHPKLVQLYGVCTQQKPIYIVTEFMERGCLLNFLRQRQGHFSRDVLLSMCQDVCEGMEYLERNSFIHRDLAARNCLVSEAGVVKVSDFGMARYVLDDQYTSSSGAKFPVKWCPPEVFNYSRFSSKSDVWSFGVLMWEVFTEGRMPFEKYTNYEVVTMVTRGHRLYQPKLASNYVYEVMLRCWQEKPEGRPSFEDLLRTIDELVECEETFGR
Method: as §1

YES = YES (Homo sapiens, UniProt P07947); assay: as above; parameters: kinases from mixed HeLa placenta lysates; endogenous in cells; host or cells: mixed lysate of HeLa cells and placenta tissue; details: 10 μM free compound
Method: as §1

Wee1 = Wee1 (Homo sapiens, UniProt P30291); assay: as above; parameters: kinases from mixed HeLa placenta lysates; endogenous in cells; host or cells: mixed lysate of HeLa cells and placenta tissue; details: 10 μM free compound
Method: as §1

AAK1 = AAK1 (Homo sapiens, UniProt Q2M2I8); assay: Kinobeads competition binding, L-363 cell lysate; parameters: capturing and identification of kinases from L-363 cell lysate; endogenous in cells; host or cells: L-363 cells, treated with MG132 before harvest; details: 10 μM free compound, L-363 lysate
Method: as §1, with “8).” for “10).”
(§2) For this experiment the human plasma cell leukaemia line L-363 was used (German Collection of Microorganisms and Cell Cultures, DSMZ number ACC49, Braunschweig, Germany). Cells were treated for three hours with 20 μM of the proteasome inhibitor MG132 (Z-Leu-Leu-Leu-al, Sigma C2211) prior to cell harvesting.

BTK = BTK (Homo sapiens, UniProt Q06187); assay: Kinobeads competition binding, L-363 cell lysate; parameters: capturing and identification of kinases from L-363 cell lysate; endogenous in cells; host or cells: L-363 cells, treated with MG132 before harvest; details: 10 μM free compound, L-363 lysate
Method: as §1, with “8).” for “10).”
as §2

Sequence of YES (P07947 whole entry): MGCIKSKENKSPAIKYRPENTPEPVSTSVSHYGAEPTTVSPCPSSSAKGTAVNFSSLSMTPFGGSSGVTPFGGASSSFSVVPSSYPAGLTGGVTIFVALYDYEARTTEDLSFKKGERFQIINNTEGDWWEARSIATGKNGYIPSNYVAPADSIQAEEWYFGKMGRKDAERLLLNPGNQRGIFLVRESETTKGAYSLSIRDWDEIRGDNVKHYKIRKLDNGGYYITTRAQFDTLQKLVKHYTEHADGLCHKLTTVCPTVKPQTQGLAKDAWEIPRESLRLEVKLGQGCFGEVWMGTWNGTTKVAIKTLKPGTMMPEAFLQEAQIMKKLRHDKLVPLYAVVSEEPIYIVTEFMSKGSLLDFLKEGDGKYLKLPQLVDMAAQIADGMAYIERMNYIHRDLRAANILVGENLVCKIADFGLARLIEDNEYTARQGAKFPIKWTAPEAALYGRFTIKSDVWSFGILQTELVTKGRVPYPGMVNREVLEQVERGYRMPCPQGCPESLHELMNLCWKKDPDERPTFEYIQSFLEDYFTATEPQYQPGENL
Sequence of AAK1 (Q2M2I8 whole entry): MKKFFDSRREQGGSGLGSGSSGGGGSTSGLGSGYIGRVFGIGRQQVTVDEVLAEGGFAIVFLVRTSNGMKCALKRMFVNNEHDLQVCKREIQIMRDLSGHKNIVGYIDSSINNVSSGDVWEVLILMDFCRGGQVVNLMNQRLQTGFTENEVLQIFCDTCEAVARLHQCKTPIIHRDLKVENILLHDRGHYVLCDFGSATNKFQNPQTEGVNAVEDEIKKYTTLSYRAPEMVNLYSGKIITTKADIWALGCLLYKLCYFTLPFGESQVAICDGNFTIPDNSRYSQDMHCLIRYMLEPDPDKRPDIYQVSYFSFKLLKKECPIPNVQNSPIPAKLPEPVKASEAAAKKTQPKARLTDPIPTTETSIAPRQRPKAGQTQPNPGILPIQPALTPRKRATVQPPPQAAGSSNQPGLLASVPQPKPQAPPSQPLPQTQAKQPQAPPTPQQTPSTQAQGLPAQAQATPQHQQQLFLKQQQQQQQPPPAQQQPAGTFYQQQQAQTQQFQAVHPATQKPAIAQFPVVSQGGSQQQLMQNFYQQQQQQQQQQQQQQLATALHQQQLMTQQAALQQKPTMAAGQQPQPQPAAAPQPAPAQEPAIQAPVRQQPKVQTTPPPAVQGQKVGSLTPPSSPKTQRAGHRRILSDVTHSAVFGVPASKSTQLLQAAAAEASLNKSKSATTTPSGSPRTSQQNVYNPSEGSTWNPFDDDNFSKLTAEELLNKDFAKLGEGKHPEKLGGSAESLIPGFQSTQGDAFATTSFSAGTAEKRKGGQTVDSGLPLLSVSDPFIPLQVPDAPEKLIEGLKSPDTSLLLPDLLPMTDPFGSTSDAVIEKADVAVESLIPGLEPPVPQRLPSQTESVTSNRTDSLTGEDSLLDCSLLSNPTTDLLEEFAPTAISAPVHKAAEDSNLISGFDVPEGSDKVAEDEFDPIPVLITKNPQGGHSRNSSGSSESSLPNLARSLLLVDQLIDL
Sequence of Wee1 (P30291 whole entry): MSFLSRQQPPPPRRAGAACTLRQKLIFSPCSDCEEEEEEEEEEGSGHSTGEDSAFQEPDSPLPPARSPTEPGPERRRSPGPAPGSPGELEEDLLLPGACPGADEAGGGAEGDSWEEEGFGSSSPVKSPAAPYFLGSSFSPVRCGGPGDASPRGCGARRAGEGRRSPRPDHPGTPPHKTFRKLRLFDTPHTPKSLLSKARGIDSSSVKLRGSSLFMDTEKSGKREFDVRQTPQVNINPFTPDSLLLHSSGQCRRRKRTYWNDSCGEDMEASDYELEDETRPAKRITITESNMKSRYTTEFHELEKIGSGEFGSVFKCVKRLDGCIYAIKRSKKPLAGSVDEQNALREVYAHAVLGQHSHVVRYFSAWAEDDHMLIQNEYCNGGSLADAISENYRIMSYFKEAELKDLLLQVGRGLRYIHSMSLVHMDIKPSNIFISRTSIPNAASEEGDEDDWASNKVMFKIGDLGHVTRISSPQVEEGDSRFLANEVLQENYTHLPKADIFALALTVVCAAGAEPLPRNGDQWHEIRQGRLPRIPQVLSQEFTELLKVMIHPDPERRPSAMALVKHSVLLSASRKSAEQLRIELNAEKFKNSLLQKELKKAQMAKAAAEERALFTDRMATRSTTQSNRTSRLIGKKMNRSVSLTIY
Sequence of TGFbR1 (P36897 34-503): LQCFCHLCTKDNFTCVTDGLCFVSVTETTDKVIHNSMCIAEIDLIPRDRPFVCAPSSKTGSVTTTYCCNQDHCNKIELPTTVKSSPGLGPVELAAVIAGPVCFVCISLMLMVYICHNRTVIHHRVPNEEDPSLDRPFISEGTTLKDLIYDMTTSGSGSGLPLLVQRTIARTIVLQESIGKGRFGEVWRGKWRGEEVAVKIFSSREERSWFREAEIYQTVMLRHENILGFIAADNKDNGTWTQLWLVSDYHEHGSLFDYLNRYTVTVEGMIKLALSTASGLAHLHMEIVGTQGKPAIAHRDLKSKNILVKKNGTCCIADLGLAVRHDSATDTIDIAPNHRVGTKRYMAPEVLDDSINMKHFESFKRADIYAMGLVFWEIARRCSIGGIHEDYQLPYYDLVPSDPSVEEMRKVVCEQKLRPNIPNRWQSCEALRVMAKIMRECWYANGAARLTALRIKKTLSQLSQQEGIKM
Sequence of BTK (Q06187 whole entry): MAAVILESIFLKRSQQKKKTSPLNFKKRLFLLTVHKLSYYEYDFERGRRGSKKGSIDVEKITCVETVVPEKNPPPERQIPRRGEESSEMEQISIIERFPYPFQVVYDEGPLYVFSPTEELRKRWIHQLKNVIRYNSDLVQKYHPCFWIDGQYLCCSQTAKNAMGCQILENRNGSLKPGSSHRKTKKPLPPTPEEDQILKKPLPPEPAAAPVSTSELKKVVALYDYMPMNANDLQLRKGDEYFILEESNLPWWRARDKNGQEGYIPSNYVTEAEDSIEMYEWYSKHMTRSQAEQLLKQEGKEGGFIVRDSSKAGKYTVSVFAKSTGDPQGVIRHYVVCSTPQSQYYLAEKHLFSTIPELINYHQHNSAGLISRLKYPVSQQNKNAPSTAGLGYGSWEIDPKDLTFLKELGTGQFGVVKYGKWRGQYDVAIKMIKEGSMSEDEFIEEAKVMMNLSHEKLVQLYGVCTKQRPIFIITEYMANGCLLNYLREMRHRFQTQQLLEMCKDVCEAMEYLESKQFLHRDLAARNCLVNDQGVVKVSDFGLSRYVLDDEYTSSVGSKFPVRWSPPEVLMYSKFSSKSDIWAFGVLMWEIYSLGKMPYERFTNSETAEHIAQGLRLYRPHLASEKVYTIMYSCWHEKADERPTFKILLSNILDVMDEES

What does the source list for CS(=O)(=O)Nc1ccccc1Nc1nc(Nc2cccc(OCCN)c2)ncc1Cl [CZC31326, N-(2-(2-(3-(2-aminoethoxy)phenylamino)-5-chloropyrimidin-4-ylamino)phenyl)methanesulfonamide]?
inhibition at 10 µM (TGFbR1): 90.8%; inhibition at 10 µM (TEC): 89.2%; inhibition at 10 µM (YES): 90.3%; inhibition at 10 µM (Wee1): 95.2%; inhibition at 10 µM (AAK1): 97.4%; Competition % (BTK): 95.7%
